Molecules are shown by their SMILES.

The results in this text go back to patent publication US11970731B2, “Enhancement of nucleic acid polymerization by aromatic compounds” (priority 2018, dated 2024).

Assay [1] addresses T1, C4760 DNA polymerase (a variant of DPO4) (Saccharolobus solfataricus, UniProt Q97W02, A155G/A42V/D156R/D292Y/D294N/E291S/E324K/E325K/E327K/E63R/E79L/G187P/G299W/I153V/I189F/I248T/I295S/K152A/K317Q/K321Q/K56Y/K78D/L293W/M76W/N188Y/P184Q/Q82W/Q83G/R300S/S297Y/S86E/T290K/T301W/V289W/V296Q).
T1 construct: made in house
Briefly: Primer extension assays using the HIV2 100 mer template. The class given is biochemical, Sulfolobus solfataricus. As to the method: PEM activity of compound 12 was tested in primer extension assays using the HIV2 100 mer template. Primer extension reactions included the following reagents: 50 mM TrisCl, 200 mM NH4OAc, 20% PEG8K, 5% NMS, 0.6 nmol PP-60.20, 0.6 mM MnCl2, 2.75 μg/μl Eco single-strand binding protein (SSB), 1 M urea, 50 pmol each XNTP, 1.1 pmol template, 1 pmol oligonucleotide primer, 1.2 μg/μl purified recombinant C4760 DNA polymerase (SEQ ID NO:2), and 0.5, 1, or 1.5 mM PEM. 10 μL primer extension reactions were run for 30 minutes at 23° C. and reaction products were analyzed by gel electrophoresis. […] Lanes 2-4 show primer extension products from reactions with a structurally related additive lacking robust PEM activity.
PEM activity of compounds 13 and 14 was tested in primer extension assays using the HIV2 100 mer template. Primer extension reactions included the following reagents: 50 mM TrisCl, 200 mM NH4OAc, 20% PEG8K, 5% NMS, 0.6 nmol PP-60.20, 0.6 mM MnCl2, 2.75 μg/μl Eco single-strand binding protein (SSB), 1 M urea, 50 pmol each XNTP, 1.1 pmol template, 1 pmol oligonucleotide primer, 1.2 μg/μl purified recombinant C4760 DNA polymerase (a variant of DPO4, see SEQ ID NO:2), and 0.5, 1, 1.52, or 2.5 mM PEM. 10 μL primer extension reactions were run for 30 minutes at 23° C. and reaction products were analyzed by gel electrophoresis. A representative gel showing primer extension products is presented in FIG. 11 (the position of the full length HIV2 100 mer is indicated by the arrow).
PEM activity of compounds 16, 17, and 18 and combinations thereof were tested in primer extension assays using the HIV2-derived 100mer template. Primer extension reactions included the following reagents: 50 mM TrisCl, 200 mM NH4OAc, 20% or 25% PEG8K, 5% NMS, 0.6 nmol PP-60.20, 0.6 mM MnCl2, 2 μg Kod single-strand binding protein (SSB), 1 M urea, 50 pmol each XNTP, 1 pmol template, 1 pmol oligonucleotide primer, 1.2 μg purified recombinant C4760 DNA polymerase (a variant of DPO4, see SEQ ID NO:2), and 0.5-2 mM PEM. 10 μL primer extension reactions were run for 30 minutes at 37° C. and reaction products were analyzed by gel electrophoresis. A representative gel showing primer extension products is presented in FIG. 13 (the position of a 100mer product is indicated by the arrow).

The next assay concerns the target T2, C4552 DNA polymerase (Saccharolobus solfataricus, UniProt Q97W02, A155G/A42V/D156R/D292Y/D294N/E291S/E324K/E325K/E327K/E79L/G187P/G299W/I153V/I189F/I248T/I295S/K152A/K317Q/K321Q/K56Y/K78D/L293W/M76W/N188Y/P184Q/Q82W/Q83G/R300S/S297Y/S86E/T290K/T301W/V289W/V296Q).
T2 construct: made in house
The assay can be described thus: Primer extension assays using three 100mer templates derived from HIV1, 2 and 3 genomes. Particulars: 0.5 mM PEM; HIV1, HIV2, HIV3 100mer templates; 30 minutes at 23° C.; FIG. 9. The class given is biochemical, Sulfolobus solfataricus. How it is done:
PEM activity of compounds 9-11 was tested in primer extension assays using three 100mer templates, derived from the HIV1, 2, and 3 genomes. Primer extension reactions included the following reagents: 75 mM TrisCl, pH 8.44, 175 mM NH4OAc, 20% PEG8K, 5% NMS, 0.8 nmol PP-60.20, 0.6 mM MnCl2, 2.3 μg Tth single-strand binding protein (SSB), 0.5 M or 1 M urea, 200 pmol each XNTP, 1.1 pmol template, 1 pmol oligonucleotide primer, 1.2 μg purified recombinant C4552 DNA polymerase, and 0.5 mM PEM. 10 μL primer extension reactions were run for 30 minutes at 23° C. and reaction products were analyzed by gel electrophoresis.

A further assay has as its system DNA polymerase. Briefly: Screen of PEMs for enhancement of XNTP polymerization (primer extension, gel electrophoresis). The class given is biochemical. The following applies: for DNA polymerase-mediated primer extension with XNTPs (length of extension products): FIG. 4 gel, 45 mer template, without PEM additive up to only around 14 XNTPs. As to the method: A representative primer extension reaction may include the following reagents: 2 pmol primer, 2.2 pmol 45 mer oligonucleotide template, 50 pmol of each XNTP (XATP, XCTP, XGTP, and XTTP), 50 mM Tris HCl, pH 6.79, 200 mM NaCl, 20% PEG, 5% NMS, 0.5 nmol polyphosphate 60.19, 0.3 mM MnCl2, and 0.6 μg of purified recombinant DNA polymerase protein. Reactions may be run for 1 hr at 23° C. Reaction products (i.e., constrained Xpandomers) are treated to cleave the phosphoramidate bonds, thereby generating linearized Xpandomers. Reaction products may be analyzed using gel electrophoresis on 4-12% acrylamide gels to resolve and visualize Xpandomer products of different lengths. For the PEM screen described above, PEMs were typically tested in the micro to millimolar range.
Again, this PEM activity is specific for compound 2, as other unrelated aromatic compounds had no effect (lanes 2-7).

Setting [2] is: 0.5, 1, 1.52, or 2.5 mM PEM, Eco SSB, 30 minutes at 23° C., FIG. 11, comparator compound 10 (lanes 1-4).
Where [3] appears, read: 2 mM compound 16, 0.5, 1, 2, and 3 mM compound 17, Kod SSB, 30 minutes at 37° C., FIG. 13, comparator compound 14 (lane 1).

T1 sequence (Q97W02 other isoform, or with tags, fused parts or gaps with the stated changes): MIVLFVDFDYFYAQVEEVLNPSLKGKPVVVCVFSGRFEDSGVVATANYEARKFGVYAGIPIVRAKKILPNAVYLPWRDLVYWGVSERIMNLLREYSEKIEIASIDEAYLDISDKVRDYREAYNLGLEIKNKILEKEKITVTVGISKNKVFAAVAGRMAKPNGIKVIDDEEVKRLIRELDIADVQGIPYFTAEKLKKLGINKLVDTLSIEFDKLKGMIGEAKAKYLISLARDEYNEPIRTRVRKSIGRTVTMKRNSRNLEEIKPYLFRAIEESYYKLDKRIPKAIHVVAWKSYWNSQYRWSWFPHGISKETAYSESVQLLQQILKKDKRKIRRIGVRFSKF
T2 sequence (Q97W02 other isoform, or with tags, fused parts or gaps with the stated changes): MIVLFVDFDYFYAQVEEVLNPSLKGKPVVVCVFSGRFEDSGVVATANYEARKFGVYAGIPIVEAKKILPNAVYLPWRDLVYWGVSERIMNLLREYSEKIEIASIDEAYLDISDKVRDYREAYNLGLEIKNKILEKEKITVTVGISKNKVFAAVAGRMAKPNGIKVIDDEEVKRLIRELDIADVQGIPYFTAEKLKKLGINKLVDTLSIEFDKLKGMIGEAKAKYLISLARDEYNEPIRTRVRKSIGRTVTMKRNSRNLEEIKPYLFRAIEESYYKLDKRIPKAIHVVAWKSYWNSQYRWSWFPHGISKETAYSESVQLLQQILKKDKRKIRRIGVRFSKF

On to `CCOC(=O)c1cc(-c2cn(-c3ccc(C(=O)O)c(O)c3)nn2)nc(-c2cn(-c3ccc(C(=O)O)c(O)c3)nn2)c1` [Compound 14, 4,4′-((4-(ethoxycarbonyl)pyridine-2,6-diyl)bis(1H-1,2,3-triazole-4,1-diyl))bis(2-hydroxybenzoic acid)], for which, in assay [1] (setting [2]), the “PEM activity: polymerization of XNTPs into Xpandomer copies of the 100 mer template” value (“PEM activity … of the 100 mer template” for short) is recorded as “enables polymerization of XNTPs into full length Xpandomer copies of the 100 mer template in a manner comparable to that of compound 10”. For `O=C(O)c1ccc(-n2cc(-c3cc([N+](=O)[O-])cc(-c4cn(-c5ccc(C(=O)O)c(O)c5)nn4)n3)nn2)cc1O` [Compound 11, 4,4′-((4-nitropyridine-2,6-diyl)bis(1H-1,2,3-triazole-4,1-diyl))bis(2-hydroxybenzoic acid)], the “PEM activity: polymerization of XNTPs into Xpandomer copies of 100 mer templates” value on C4552 DNA polymerase is recorded as “enable XNTP polymerization at least as efficiently as compound 1”.

On to `COc1cc(-c2cn(-c3ccc(C(=O)O)c(O)c3)nn2)nc(-c2cn(-c3ccc(C(=O)O)c(O)c3)nn2)c1` [Compound 9, 4,4′-((4-methoxypyridine-2,6-diyl)bis(1H-1,2,3-triazole-4,1-diyl))bis(2-hydroxybenzoic acid)], for which the “PEM activity: polymerization of XNTPs into Xpandomer copies of 100 mer templates” value on C4552 DNA polymerase is listed as “enable XNTP polymerization at least as efficiently as compound 1”.

On to `O=C(O)c1ccc(-n2cc(-c3cccc(-c4cn(-c5ccc(C(=O)O)c(O)c5)nn4)c3)nn2)cc1O` [Compound 3, 4,4′-(1,3-phenylenebis(1H-1,2,3-triazole-4,1-diyl))bis(2-hydroxybenzoic acid)], for which the “DNA polymerase-mediated primer extension with XNTPs (length of extension products)” value in the assay with DNA polymerase is listed as “enables the polymerase to synthesize considerably longer extension products”. With `COC(=O)c1cc(-c2cn(-c3ccc(C(=O)O)c(O)c3)nn2)nc(-c2cn(-c3ccc(C(=O)O)c(O)c3)nn2)c1` [Compound 16, 4,4′-((4-(methoxycarbonyl)pyridine-2,6-diyl)bis(1H-1,2,3-triazole-4,1-diyl))bis(2-hydroxybenzoic acid)], the “PEM activity … of the 100 mer template” value in assay [1] (setting [3]) is listed as “enable polymerization of XNTPs into lengthy Xpandomer copies of the 100 mer template in a manner comparable to that of compound 14”. For the compound `CCNC(=O)c1cc(-c2cn(-c3ccc(C(=O)O)c(O)c3)nn2)nc(-c2cn(-c3ccc(C(=O)O)c(O)c3)nn2)c1` [Compound 17, 4,4′-((4-(ethylcarbamoyl)pyridine-2,6-diyl)bis(1H-1,2,3-triazole-4,1-diyl))bis(2-hydroxybenzoic acid)], the “PEM activity … of the 100 mer template” value in assay [1] (setting [3]) is “enable polymerization of XNTPs into lengthy Xpandomer copies of the 100 mer template in a manner comparable to that of compound 14”. For `Cc1cc(-c2cn(-c3ccc(C(=O)O)c(O)c3)nn2)nc(-c2cn(-c3ccc(C(=O)O)c(O)c3)nn2)c1` [Compound 13, 4,4′-((4-methylpyridine-2,6-diyl)bis(1H-1,2,3-triazole-4,1-diyl))bis(2-hydroxybenzoic acid)], the “PEM activity … of the 100 mer template” value in assay [1] (setting [2]) is recorded as “enables polymerization of XNTPs into full length Xpandomer copies of the 100 mer template in a manner comparable to that of compound 10”. In the case of `O=C(O)c1ccc(-n2cc(-c3ccc4[nH]c5ccc(-c6cn(-c7ccc(C(=O)O)c(O)c7)nn6)cc5c4c3)nn2)cc1O` [Compound 4, 4,4′-((9H-carbazole-3,6-diyl)bis(1H-1,2,3-triazole-4,1-diyl))bis(2-hydroxybenzoic acid)], the “DNA polymerase-mediated primer extension with XNTPs (length of extension products)” value in the assay on DNA polymerase was “enables the polymerase to synthesize considerably longer extension products”. Turning to `N#Cc1cc(-c2cn(-c3ccc(O)c(C(=O)O)c3)nn2)nc(-c2cn(-c3ccc(O)c(C(=O)O)c3)nn2)c1` [Compound 12, 5,5′-((4-cyanopyridine-2,6-diyl)bis(1H-1,2,3-triazole-4,1-diyl))bis(2-hydroxybenzoic acid)], the “PEM activity … of the 100 mer template” value in assay [1] (0.5, 1, or 1.5 mM PEM, Eco SSB, 30 minutes at 23° C., FIG. 10, comparable to compound 10 (lane 1)) was “enables polymerization of XNTPs into full length Xpandomer copies of the 100 mer template”. Regarding `O=C(O)c1ccc(-n2cc(-c3cncc(-c4cn(-c5ccc(C(=O)O)c(O)c5)nn4)c3)nn2)cc1O` [Compound 2, 4,4′-(pyridine-3,5-diylbis(1H-1,2,3-triazole-4,1-diyl))bis(2-hydroxybenzoic acid)], the “primer extension activity with XNTPs” value with DNA polymerase (FIG. 5 gel, compound at various concentrations (lanes 8-10), without PEM additive modest activity) is on record as “significantly enhances primer extension activity”.
